From patent publication US7737155B2, “Nitrogen-containing heterocyclic compounds and methods of use thereof” (Schering Corporation, priority 2005, dated 2010)

molecular target: recombinant human nicotinic acid receptor (NAR) (Homo sapiens, UniProt Q8TDS4); assay: Nicotinic Acid Receptor Assay: inhibition of forskolin-stimulated cAMP accumulation in CHO cells (MesoScale Discovery cAMP kit); format: cell-based; conditions: CHO cells expressing recombinant human NAR; forskolin-stimulated cAMP; read-out: NA EC50 camp
Method in brief: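 Compounds were diluted in PBS containing 6 μM forskolin and incubated with cells for 30 min at room temperature. cAMP was quantified by the MesoScale kit against an on-plate standard curve.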

Sequence of recombinant human nicotinic acid receptor (NAR) (Q8TDS4 whole entry): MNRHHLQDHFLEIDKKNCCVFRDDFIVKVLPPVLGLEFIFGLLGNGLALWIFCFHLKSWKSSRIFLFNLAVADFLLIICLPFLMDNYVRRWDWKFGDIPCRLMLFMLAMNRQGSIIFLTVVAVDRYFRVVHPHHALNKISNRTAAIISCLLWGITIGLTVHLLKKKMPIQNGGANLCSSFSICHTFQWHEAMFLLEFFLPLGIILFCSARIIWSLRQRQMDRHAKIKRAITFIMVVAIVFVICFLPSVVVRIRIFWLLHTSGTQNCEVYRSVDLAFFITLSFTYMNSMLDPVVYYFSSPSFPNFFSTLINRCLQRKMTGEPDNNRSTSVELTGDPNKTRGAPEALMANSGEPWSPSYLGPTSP

| EC50 [nM] | Compound |
| --- | --- |
| > 1000 | CC(Cc1cc(=O)oc2[nH]c(=O)[nH]c(=O)c12)CC(C)(C)C (stereo not drawn) [Compound 248] |
| > 1000 | COC(C)(C)CCc1cc(=O)oc2[nH]c(=O)[nH]c(=O)c12 [Compound 279] |
| > 1000 | COc1ccc(-c2ccc(Cc3cc(=O)oc4[nH]c(=O)[nH]c(=O)c34)cc2)cc1 [Compound 207] |
| 100 to 1000 | CCc1cc(=O)oc2nc(OCCOc3c(OC)cccc3OC)[nH]c(=O)c12 [Compound 622] |
| 100 to 1000 | CCc1cc(=O)oc2nc(OCCSc3ccccn3)[nH]c(=O)c12 [Compound 655] |
| > 1000 | CCc1cc(=O)oc2nc(OCCS(C)(=O)=O)[nH]c(=O)c12 [Compound 588] |
| 100 to 1000 | CCc1cc(=O)oc2nc(OCc3ccc(-n4cccn4)cc3)[nH]c(=O)c12 [Compound 624] |
| 0.001 to 100 | O=c1[nH]c(=O)c2c(CC3CCC(F)(F)CC3)cc(=O)oc2[nH]1 [Compound 223] |
| 100 to 1000 | CCc1cc(=O)oc2nc(OCc3ccccc3-c3cccc(C(=O)NC)c3)[nH]c(=O)c12 [Compound 551] |
| 100 to 1000 | CCc1cc(=O)oc2nc(OCC#CC(C)OC)[nH]c(=O)c12 (stereo not drawn) [Compound 672] |
| 100 to 1000 | CCC#CC(C)Oc1nc2oc(=O)cc(CC)c2c(=O)[nH]1 (stereo not drawn) [Compound 639] |
| > 1000 | CCc1cc(=O)oc2nc(OCc3ccc(-c4ccccc4)cc3)[nH]c(=O)c12 [Compound 517] |
| > 1000 | CCc1cc(=O)oc2nc(OCc3cccc(-c4cccc5cccnc45)c3)[nH]c(=O)c12 [Compound 560] |
| 100 to 1000 | O=c1cc(CCc2cccs2)c2c(=O)n(C3CCC3)c(=O)[nH]c2o1 [Compound 282] |
| > 1000 | CCc1cc(=O)oc2nc(OCc3cc4c(C)nn(C)c4s3)[nH]c(=O)c12 [Compound 646] |
| 100 to 1000 | O=c1cc(CCCCC2CC2)c2c(=O)[nH]c(=O)n(C3CCC3)c2o1 [Compound 210] |

| EC50 [nM] | Compound |
| --- | --- |
| > 1000 | CCCCc1cc(=O)oc2c1c(=O)[nH]c(=O)n2CC1CC1 [Compound 257] |
| 0.001 to 100 | CCc1cc(=O)oc2nc(OCc3cc4cc(C)ccc4s3)[nH]c(=O)c12 [Compound 654] |
| 100 to 1000 | CCc1cc(=O)oc2nc(OCc3ccccc3-c3cccc(CO)c3)[nH]c(=O)c12 [Compound 634] |
| 100 to 1000 | CCc1cc(=O)oc2nc(OC[C@@H](OC)c3ccccc3)[nH]c(=O)c12 [Compound 618] |
| 100 to 1000 | CCCC(C)c1cc(=O)oc2[nH]c(=O)[nH]c(=O)c12 (stereo not drawn) [Compound 218] |
| 100 to 1000 | CCc1noc(C)c1COc1nc2oc(=O)cc(CCC(C)C)c2c(=O)[nH]1 [Compound 688] |
| > 1000 | O=c1cc(CCC2CCCC2)c2c(=O)[nH]c(=O)n(C3CCC3)c2o1 [Compound 242] |
| 100 to 1000 | CCc1cc(=O)oc2nc(OCc3c(C)noc3-c3ccccc3)[nH]c(=O)c12 [Compound 531] |
| > 1000 | N#Cc1ccc(-c2c(CCC3CCC3)c3c(=O)[nH]c(=O)[nH]c3oc2=O)cc1 [Compound 702] |
| 0.001 to 100 | CCCCc1cc(=O)oc2nc(OCC#CCOC)[nH]c(=O)c12 [Compound 670] |
| > 1000 | O=c1[nH]c(=O)c2c(CCCOCc3ccccc3)cc(=O)oc2[nH]1 [Compound 264] |
| 100 to 1000 | CCc1cc(=O)oc2nc(OCc3cccc(-c4cccc(OC)c4)c3)[nH]c(=O)c12 [Compound 561] |
| 0.001 to 100 | CCc1cc(=O)oc2nc(O[C@@H](C)c3ccc4ccccc4c3)[nH]c(=O)c12 [Compound 501] |
| > 1000 | O=c1[nH]c(=O)c2c(CCC3CCC3)c(-c3ccc(F)cc3)c(=O)oc2[nH]1 [Compound 700] |
| > 1000 | CC(=O)NCCCc1cc(=O)oc2[nH]c(=O)[nH]c(=O)c12 [Compound 237] |
| > 1000 | CCn1c(=O)[nH]c2oc(=O)cc(C)c2c1=O [Compound 289] |

The next lines start with the compound.

| Compound | EC50 [nM] |
| --- | --- |
| CCc1cc(=O)oc2nc(OCC(=O)c3ccccc3)[nH]c(=O)c12 [Compound 603] | 100 to 1000 |
| COc1ccc(-c2cc(CCCc3cc(=O)oc4[nH]c(=O)[nH]c(=O)c34)on2)cc1 [Compound 261] | 100 to 1000 |
| CCC(C)CCc1cc(=O)oc2[nH]c(=O)[nH]c(=O)c12 (stereo not drawn) [Compound 247] | 0.001 to 100 |
| CCc1cc(=O)oc2nc(OCCN3CCCC3=O)[nH]c(=O)c12 [Compound 592] | 100 to 1000 |
| O=c1[nH]c(=O)c2c(CCC3CCC3)c(-c3ccccc3)c(=O)oc2[nH]1 [Compound 699] | > 1000 |
| CCCCc1c(-c2cccc(OC)c2)c(=O)oc2[nH]c(=O)[nH]c(=O)c12 [Compound 707] | > 1000 |
| CCc1cc(=O)oc2nc(OCc3cc(F)cc(F)c3)[nH]c(=O)c12 [Compound 506] | > 1000 |
| O=c1cc(CCCCc2cccs2)c2c(=O)n(C3CCC3)c(=O)[nH]c2o1 [Compound 280] | > 1000 |
| CCc1cc(=O)oc2nc(OCCOc3ccc(Br)cc3)[nH]c(=O)c12 [Compound 600] | > 1000 |
| CCc1cc(=O)oc2nc(OCc3ccccc3-c3cccc(COC)c3)[nH]c(=O)c12 [Compound 549] | 100 to 1000 |
| CCc1cc(=O)oc2nc(OCc3ccnc(NC(=O)C(C)(C)C)c3)[nH]c(=O)c12 [Compound 653] | > 1000 |
| CCc1cc(=O)oc2nc(OCC#Cc3ccccc3)[nH]c(=O)c12 [Compound 522] | 100 to 1000 |
| CCc1cc(=O)oc2nc(OCc3ccccc3C#N)[nH]c(=O)c12 [Compound 611] | > 1000 |
| CCc1cc(=O)oc2nc(OCc3ccccc3-c3cccc(C(=O)N(C)C)c3)[nH]c(=O)c12 [Compound 552] | 100 to 1000 |
| CCc1cc(=O)oc2nc(OCc3cc4ccccc4s3)[nH]c(=O)c12 [Compound 538] | 100 to 1000 |
| CCc1cc(=O)oc2nc(OCC#CCN(C)C)[nH]c(=O)c12 [Compound 641] | 0.001 to 100 |

| Compound | EC50 [nM] |
| --- | --- |
| CCc1cc(=O)oc2nc(OCCOCc3csc4ccccc34)[nH]c(=O)c12 [Compound 662] | 0.001 to 100 |
| CCOC(=O)NOc1nc2oc(=O)cc(CCC3CCCC3)c2c(=O)[nH]1 [Compound 693] | 100 to 1000 |
| CCc1noc(C)c1COc1nc2oc(=O)cc(Cc3cccc(F)c3)c2c(=O)[nH]1 [Compound 685] | 100 to 1000 |
| CCc1cc(=O)oc2nc(OCc3ccc(-c4cccc(OC)c4)cc3F)[nH]c(=O)c12 [Compound 572] | 100 to 1000 |
| O=c1[nH]c(=O)c2c(CCCC3CCCC3)cc(=O)oc2[nH]1 [Compound 297] | 0.001 to 100 |
| CCc1cc(=O)oc2nc(OCCN3CCOC3=O)[nH]c(=O)c12 [Compound 620] | > 1000 |
| O=c1cc(CCC2CCCC2)c2c(=O)n(C3CCC3)c(=O)[nH]c2o1 [Compound 241] | 0.001 to 100 |
| CCc1cc(=O)oc2nc(OC[C@H](C)OC)[nH]c(=O)c12 [Compound 632] | 100 to 1000 |
| CCOc1nc2oc(=O)cc(CCC3CCCC3)c2c(=O)[nH]1 [Compound 687] | 100 to 1000 |
| CCCCc1cc(=O)oc2nc(OCCOC)[nH]c(=O)c12 [Compound 660] | > 1000 |
| CCc1cc(=O)oc2nc(OCc3snnc3-c3ccccc3)[nH]c(=O)c12 [Compound 532] | 100 to 1000 |
| CCc1cc(=O)oc2nc(OCc3cccc(-c4ccccc4F)c3)[nH]c(=O)c12 [Compound 559] | 100 to 1000 |
| O=c1[nH]c(=O)c2c(CC3CCC4CC34)cc(=O)oc2[nH]1 (stereo not drawn) [Compound 235] | 0.001 to 100 |
| O=c1cc(Cc2ccccc2)c2c(=O)[nH]c(OCc3ccccc3F)nc2o1 [Compound 616] | 100 to 1000 |
| CCCCCCc1cc(=O)oc2nc(ONC(=O)OCC)[nH]c(=O)c12 [Compound 692] | 0.001 to 100 |
| CCc1cc(=O)oc2nc(OCc3cccc(-c4ccc(F)c(Cl)c4)c3)[nH]c(=O)c12 [Compound 558] | > 1000 |

same assay, conditions: NA EC50 camp (nM), CHO cells expressing recombinant human NAR; forskolin-stimulated cAMP

| Compound | EC50 [nM] |
| --- | --- |
| CCc1cc(=O)oc2nc(OCC#CC3CC3)[nH]c(=O)c12 [Compound 589] | 0.001 to 100 |
| CCc1cc(=O)oc2nc(OCc3cccc(-c4cccc(C#N)c4)c3)[nH]c(=O)c12 [Compound 567] | 100 to 1000 |

same assay, conditions: NA EC50 camp, inhibition of forskolin-stimulated cAMP accumulation, CHO cells expressing recombinant human NAR

| Compound | EC50 [nM] |
| --- | --- |
| O=c1cc(CCC2CC2)c2c(=O)[nH]c(C(F)F)nc2o1 [Compound 752] | 248 |

same assay, conditions: inhibition of forskolin-stimulated cAMP accumulation, CHO cells expressing recombinant human NAR; read-out: NA EC50 camp

| EC50 [nM] | Compound |
| --- | --- |
| 26.5 | O=c1[nH]c(=O)c2c(CC3CCC(F)(F)CC3)cc(=O)oc2[nH]1 [Compound 223] |
| 291 | CCCCc1cc(=O)oc2[nH]c(=O)n(C(F)F)c(=O)c12 [Compound 816] |
| 1540 | CCc1cc(=O)oc2[nH]c(=O)n(CCF)c(=O)c12 [Compound 819] |
| 671 | CCC#CCOc1nc2oc(=O)cc(CCCC(C)C)c2c(=O)[nH]1 [Compound 715] |
| 3450 | CCCCc1cc(=O)oc2[nH]c(=O)n(CF)c(=O)c12 [Compound 803] |
| 57.3 | CC1CCC(Cc2cc(=O)oc3[nH]c(=O)[nH]c(=O)c23)CC1 (stereo not drawn) [Compound 127] |
| 226 | CCCC#CCOc1nc2oc(=O)cc(CCC3CC3)c2c(=O)[nH]1 [Compound 721] |
| 8920 | CCCCc1cc(=O)oc2nc(C(F)(F)F)[nH]c(=O)c12 [Compound 764] |
| 68 | CCn1c(=O)[nH]c2oc(=O)cc(CCC3CCCC3)c2c1=O [Compound 781] |
| 161 | O=c1cc(CCCC2CC2)c2c(=O)n(C(F)F)c(=O)[nH]c2o1 [Compound 814] |
| 182 | O=c1cc(CCC2CCC2)c2c(=O)[nH]c(CF)nc2o1 [Compound 749] |
| 142 | CCCCc1cc(=O)oc2[nH]c(=O)n(CC(F)F)c(=O)c12 [Compound 821] |

Continued, compound first:

| Compound | EC50 [nM] |
| --- | --- |
| O=c1cc(CCC2CCCC2)c2c(=O)[nH]c(C(F)(F)F)nc2o1 [Compound 763] | 7730 |
| O=c1[nH]c(=O)c2c(CC3CC3)cc(=O)oc2[nH]1 [Compound 117] | 155 |
| O=c1[nH]c(=O)c2c(CCCC3CCCC3)cc(=O)oc2[nH]1 [Compound 297] | 56.7 |
| CCCCc1cc(=O)oc2[nH]c(=O)n(OCc3ccccc3)c(=O)c12 [Compound 799] | > 10000 |
| CCn1c(=O)[nH]c2oc(=O)cc(CCCC3CC3)c2c1=O [Compound 782] | 94 |
| O=c1cc(CCC2CCCC2)c2c(=O)n(C3CCC3)c(=O)[nH]c2o1 [Compound 241] | 13 |
| CCCCc1cc(=O)oc2nc(O[C@H]3C[C@H](COCc4ccccc4)C3)[nH]c(=O)c12 [Compound 791] | 50 |
| N#Cc1c(CCCC2CC2)c2c(=O)[nH]c(=O)[nH]c2oc1=O [Compound 759] | 2330 |
